Laboratory results taken from patent US20240156800A1, “EP300 DEGRADER AND USES THEREOF IN NEUROBLASTOMA” (DANA-FARBER CANCER INSTITUTE, INC., priority 2021, published 2024).

Molecular target: T1, CBP (Homo sapiens, UniProt Q92793)
T1 construct: Cells growing in culture were lysed for whole cell lysates; endogenous in cells; host or cells: Kelly, NGP, SIMA, BE2C neuroblastoma cells; Kelly xenografts in NSG mice
Test: Western blotting of CBP in treated NB cells
Assay type: cell-based
Experimental: Cells growing in culture were lysed for whole cell lysates as described in Durbin et al. Nat. Genet. 50:1240-1246 (2018) and Wang et al. Nat. Commun. 10:5622 (2019). Nuclear lysates were prepared using the NE-PER® nuclear lysate kit (Thermo Scientific™) according to the manufacturer's protocol. Chromatin lysates were prepared with the total histone extraction kit (Epigentek). Briefly, equivalent amounts of protein were resolved by western blotting using 4-12% Bis-Tris NuPAGE™ gels (Thermo-Fisher Scientific) prior to transfer, and immunoblotting using primary antibodies to: MYCN (1:1000, Cell Signaling Technology®), H3K27ac (1:1000, Abcam), total H3 (1:1000, Cell Signaling Technology®), EP300 (1:1000, Abcam), CBP (1:500, Cell Signaling Technology®), Cas9 (1:1000, Cell Signaling Technology®), cleaved-PARP1 (1:1000, Cell Signaling Technology), cleaved Caspase-3 (1:1000, Cell Signaling Technology®), β-actin (1:1000, Cell Signaling Technology®), GATA3 (1:1000, EMD Millipore™), TFAP2β (1:1000, Cell Signaling Technology®), Vinculin (1:1000, EMD Millipore™), CRBN (1:1000, Cell Signaling Technology®), HAND2 (1:1000, Santa Cruz Biotechnology). Secondary antibodies were horseradish peroxidase (HRP)-conjugated anti-rabbit or anti-mouse (1:5000, Santa Cruz Biotechnology), incubated prior to exposure to enhanced chemiluminescence reagents (GE, Amersham). For immunoprecipitation, equal amounts of protein were diluted in buffer C as described in Mansour et al. Science 346:1373-1377 (2014) and incubated with antibodies covalently conjugated to Dynabeads™ M-270 beads (Thermo-Fisher Scientific) overnight according to the manufacturer's directions. Antibodies used included: H3K27ac, EP300 (Abcam), CBP, TFAP2β (Cell Signaling Technology®), rabbit immunoglobulin G (IgG) (Santa Cruz Biotechnology®). Immunoprecipitated protein was isolated as per the manufacturer's directions and subjected to western blotting, as described above, or mass spectrometry.

T1 sequence (Q92793 whole entry): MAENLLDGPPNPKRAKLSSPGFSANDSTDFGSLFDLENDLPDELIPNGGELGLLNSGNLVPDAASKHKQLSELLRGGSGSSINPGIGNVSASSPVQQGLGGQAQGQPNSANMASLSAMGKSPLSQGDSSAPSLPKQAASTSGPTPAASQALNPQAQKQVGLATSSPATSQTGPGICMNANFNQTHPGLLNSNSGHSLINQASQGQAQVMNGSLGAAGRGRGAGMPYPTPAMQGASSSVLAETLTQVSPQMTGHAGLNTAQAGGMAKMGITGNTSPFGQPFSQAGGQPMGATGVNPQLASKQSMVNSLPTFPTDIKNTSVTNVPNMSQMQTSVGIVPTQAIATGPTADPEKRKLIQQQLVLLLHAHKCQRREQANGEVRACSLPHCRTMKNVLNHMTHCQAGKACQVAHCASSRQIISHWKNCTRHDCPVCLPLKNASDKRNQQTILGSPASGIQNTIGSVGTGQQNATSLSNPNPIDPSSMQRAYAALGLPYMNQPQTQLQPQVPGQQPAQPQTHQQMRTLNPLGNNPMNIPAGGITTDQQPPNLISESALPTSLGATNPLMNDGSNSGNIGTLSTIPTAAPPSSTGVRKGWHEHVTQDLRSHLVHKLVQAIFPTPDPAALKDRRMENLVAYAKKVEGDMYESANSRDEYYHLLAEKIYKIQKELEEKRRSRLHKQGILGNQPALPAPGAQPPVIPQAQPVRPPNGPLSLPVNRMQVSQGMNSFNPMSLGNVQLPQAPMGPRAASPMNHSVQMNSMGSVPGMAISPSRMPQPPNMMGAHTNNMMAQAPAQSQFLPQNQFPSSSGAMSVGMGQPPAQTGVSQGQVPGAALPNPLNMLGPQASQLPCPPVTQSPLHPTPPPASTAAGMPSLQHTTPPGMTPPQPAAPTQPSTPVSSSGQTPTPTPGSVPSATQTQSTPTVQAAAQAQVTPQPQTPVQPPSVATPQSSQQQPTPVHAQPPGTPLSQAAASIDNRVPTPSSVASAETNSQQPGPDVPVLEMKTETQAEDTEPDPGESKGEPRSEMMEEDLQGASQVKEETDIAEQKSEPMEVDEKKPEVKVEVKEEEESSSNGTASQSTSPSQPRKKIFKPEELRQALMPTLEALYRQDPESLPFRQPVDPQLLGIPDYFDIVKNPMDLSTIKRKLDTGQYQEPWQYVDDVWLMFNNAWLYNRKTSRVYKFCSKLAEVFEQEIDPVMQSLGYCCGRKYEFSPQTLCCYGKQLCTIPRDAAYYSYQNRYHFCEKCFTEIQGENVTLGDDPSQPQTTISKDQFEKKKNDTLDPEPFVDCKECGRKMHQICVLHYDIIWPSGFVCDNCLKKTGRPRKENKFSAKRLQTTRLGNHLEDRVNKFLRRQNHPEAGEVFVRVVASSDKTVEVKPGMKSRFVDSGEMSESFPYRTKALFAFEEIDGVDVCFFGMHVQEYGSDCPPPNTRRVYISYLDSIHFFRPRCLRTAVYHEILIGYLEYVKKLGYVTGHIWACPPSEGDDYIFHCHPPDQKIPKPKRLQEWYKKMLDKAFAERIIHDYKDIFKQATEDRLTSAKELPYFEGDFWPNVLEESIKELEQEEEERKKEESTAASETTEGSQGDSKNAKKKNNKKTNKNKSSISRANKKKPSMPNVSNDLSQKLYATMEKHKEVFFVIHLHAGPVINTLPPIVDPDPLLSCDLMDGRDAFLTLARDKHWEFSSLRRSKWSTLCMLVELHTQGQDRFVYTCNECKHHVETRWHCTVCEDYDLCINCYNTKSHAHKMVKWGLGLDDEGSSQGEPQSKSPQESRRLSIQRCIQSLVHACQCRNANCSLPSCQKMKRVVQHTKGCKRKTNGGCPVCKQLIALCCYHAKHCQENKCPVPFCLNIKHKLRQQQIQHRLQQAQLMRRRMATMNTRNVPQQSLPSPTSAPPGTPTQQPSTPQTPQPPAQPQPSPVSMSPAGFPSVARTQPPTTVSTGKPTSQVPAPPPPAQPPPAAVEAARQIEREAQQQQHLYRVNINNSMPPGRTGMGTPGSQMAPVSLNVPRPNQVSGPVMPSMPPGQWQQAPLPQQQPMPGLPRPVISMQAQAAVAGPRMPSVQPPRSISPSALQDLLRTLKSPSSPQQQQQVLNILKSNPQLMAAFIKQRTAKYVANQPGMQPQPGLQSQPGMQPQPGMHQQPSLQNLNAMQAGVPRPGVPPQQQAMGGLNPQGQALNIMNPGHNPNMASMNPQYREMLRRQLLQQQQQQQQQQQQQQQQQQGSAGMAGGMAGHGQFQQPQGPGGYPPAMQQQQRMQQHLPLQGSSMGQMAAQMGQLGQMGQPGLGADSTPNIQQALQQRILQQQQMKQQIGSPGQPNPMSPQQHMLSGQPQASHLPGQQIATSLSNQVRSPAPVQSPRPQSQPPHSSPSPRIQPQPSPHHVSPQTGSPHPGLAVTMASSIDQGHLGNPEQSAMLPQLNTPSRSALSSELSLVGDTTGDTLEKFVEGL

Structure (SMILES): C[C@H](N(Cc1ccc(F)cc1)C(=O)CN1C(=O)O[C@@]2(CCc3cc(NC(=O)CCCCCCCCCCCNc4ccc5c(c4)C(=O)N(C4CCC(=O)NC4=O)C5=O)ccc32)C1=O)C(F)(F)F (stereo partly drawn) [JQAD1, 12-((2-(2,6-dioxopiperidin-3-yl)-1,3-dioxoisoindolin-5-yl)amino)-N-((R)-3′-(2-((4-fluorobenzyl)((S)-1,1,1-trifluoropropan-2-yl)amino)-2-oxoethyl)-2′,4′-dioxo-2,3-dihydrospiro[indene-1,5′-oxazolidin]-5-yl)dodecanamide]
- CBP expression levels (Kelly cells, 24 h): neither compound had significant effects on expression levels of CBP
- CBP detection at 24 h (Kelly, NGP and SIMA cells, 24 h): could still be detected
- CBP expression with extended treatment (Kelly, NGP and SIMA cells, extended treatment): loss of CBP expression was observed
